The text below walks through data of BindingDB's records for doi:10.1016/s0960-894x(99)00042-6 (1999).

The assay in a line: Inhibitory activity against beta-glucosidase of sweet almond.

Usually Ki stands for the dissociation constant of the complex between target and ligand, obtained from inhibition or displacement. Turning to `C[C@@H]1NC[C@@H](CO)[C@@H](O)[C@@H]1O` [5-Hydroxymethyl-2-methyl-piperidine-3,4-diol], the inhibition constant (Ki) came out at 2100 nM.
